Reference: patent publication US20240238459A1, “Granzyme-Activatable Membrane-Interacting Peptides and Methods of Use” (priority 2021, published 2024)
Peptide text beside a SMILES is read from it. * marks the point of attachment. DOTA = O=C(O)CN1CCN(CC(=O)O)CCN(CC(=O)*)CCN(CC(=O)O)CC1; Ahx = NCCCCCC(=O)O

Key:
E. coli [1] = assay: PET/CT and biodistribution in E. coli myositis in germline GZMB knockout mice; assay type: in vivo, mouse
Description: To confirm the radiotracer uptake in the abscess was due to granzyme B, imaging studies were performed in germline GZMB knockout mice. The mice received live and heat killed E. Coli and were injected and imaged following the same protocol for wild type mice.

L. monoctyogenes = assay: PET in L. monoctyogenes myositis model; assay type: in vivo, mouse
Excerpt: Neither M. marinum nor the L. monoctyogenes induced ^64Cu-GRIP B uptake in live bacterial abscesses compared to heat killed controls.

K. pneumoniae = assay: PET in K. pneumoniae myositis model; assay type: in vivo, mouse
Excerpt: (§1) Performing additional myositis studies with other bacterial strains yielded unexpected and variable granzyme “responses” on PET. […] In both mouse cohorts, radiotracer uptake in the treated muscles was higher than in the normal muscle.

S. aureus = assay: PET in S. aureus myositis model; assay type: in vivo, mouse
Excerpt: Granzyme B responses to other bacterial strains has also been tested. Live or heat killed S. aureus were implanted into the deltoids of mice to understand immune responses on PET. […] One possibility for the difference in response is that granzyme B is not uniformly employed to attack all pathogens, and the immune cells may customize their granzyme response based on the features of the pathogen.

CT26 tumors = assay: Biodistribution in germline GZMB knockout mice bearing CT26 tumors, vehicle or CPI; assay type: in vivo, mouse
Description: Lastly, to confirm that GZMB is responsible for post treatment changes in ^64Cu-GRIP B biodistribution, germline homozygous GZMB knockout mice were inoculated with CT26 tumors and the relative biodistribution of ^64Cu-L-GRIP B in mice was assessed after treatment with vehicle or CPIs.
To confirm this, post treatment changes in tumoral uptake of ^64Cu-GRIP B were assessed for correlation with antitumor effects.

[2] = PET/CT, biodistribution and autoradiography in mice bearing CT26 tumors treated with vehicle or CPI; conditions: both, mouse, in vivo, iv, total radioactivity
Description: (§2) The effect of immunomodulatory therapies on ^64Cu-GRIP B biodistribution was next evaluated in mice bearing subcutaneous CT26 tumors, a mouse colorectal cancer cell line that responds to immunomodulatory therapy. Mice were treated with three intraperitoneal infusions of vehicle or anti-PD1 plus anti-CTLA4 CPIs over 11 days. The radiotracer was injected on day 14, and tumor uptake was monitored over several time points out to 24 hours post injection on PET.
(§3) A biodistribution study at 2 hours post injection was performed to determine relative changes in tracer uptake between tissues in the vehicle and treated groups.
(§4) All animal experiments were approved by the Institutional Animal Care and Use Committee at UCSF. Four to six week old male or female balb/c mice and C57BL6/J mice were purchased from Jackson Laboratory and housed with free access to the water and food. All mice were inoculated with 5×10^6 CT26, MC38, or EMT6 cells in a mixture of media and Matrigel (Corning) (v/v 1:1) subcutaneously into the left shoulder. Anti-mouse PD-1 (CD279) (BE0146) and anti-mouse CTLA-4 (CD152) (BE0164) were purchased from Bio X Cell and stored at 4° C. during the treatment studies. Mice bearing subcutaneous tumors were received anti-mouse CTLA-4 (200 ug) or/and anti-mouse PD-1 (200 ug) and as a combination therapy or PBS as the vehicle on days 5, 8, 11 following the tumor inoculation. Mice were weighed and the tumor volume were measured with calipers on the same day of the treatment. On day 14, all mice were used for PET/CT or BioD studies.
(§5) ^64Cu-L-GRIP B or ^64Cu-D-GRIP B (˜100 μCi/mouse) in 100-150 μL of 10% DMSO and 10% Tween 80 in saline was injected via tail vein. After a period of uptake time, mice were anesthetized with isoflurane (˜2%), and imaged with a microPET/CT scanner (Inveon, Siemens). For static imaging, mice were scanned for 30 min for PET data acquisition and 10 min for CT data acquisition. For the dynamic acquisitions, the mice were anesthetized, positioned on the scanner bed, and injected intravenously with radiotracer. The dynamic acquisition was performed for scanned for 60 min followed by a 10 min CT acquisition.
(§6) At dedicated time points post radiotracer injection, mice were euthanized with CO2(g) asphyxiation, and the blood was collected by direct cardiac puncture. Tissues were harvested, weighed and counted on a gamma counter (Hidex). The amount of radioactivity in the tissues was determined by comparison with a standard of known activity. The samples were decay-corrected and expressed as the percentage of the injected dose/weight of the harvested tissues (% ID/g).
(§7) Tumors or designated tissue were flash frozen in OCT in dry ice. The tissues were sectioned with a microtome (Leica) into slices with 10-20 um thickness and directly mounted on glass slides (VWR). GE Storage Phosphor Screen were exposed by such slides with radioactive tissue. After 10 half-live of copper-64, the screen was developed on a phosphorimager (Typhoon 9400). The images were further analyzed by using Fiji software.

subcutaneous CT26 tumors = assay: as above
Description: as §2, §3, §4, §5, §6, §7

MC38 = assay: Biodistribution and PET/CT in mice bearing MC38 tumors treated with vehicle or CPI; assay type: in vivo, mouse; conditions: MC38 cohort, biodistribution
Description: Next, the biodistribution of ^64Cu-GRIP B and ^64Cu-D-GRIP B was compared in mice bearing MC38 (mouse colorectal cancer) or EMT6 (mouse mammary breast carcinoma) xenografts. The mice were treated with vehicle or anti-PD1 and anti-CTLA4 CPIs following the schema used for the CT26 cohort.

virus = assay: PET and biodistribution in viral pneumonia model; conditions: biodistribution; including spleen, liver and blood pool
Description: In collaboration with the Looney lab at UCSF, mice received an intranasal instillation of virus or sham, and were imaged with ^64Cu-GRIP B at 10 days post infection (the time point at which peak recruitment of T cells to the lungs occurs).

P. aeruginosa = assay: PET in P. aeruginosa myositis model; assay type: in vivo, mouse
Excerpt: as §1

E. coli [3] = assay: PET in E. coli myositis model (live vs heat killed, vs LPS); assay type: in vivo, mouse
Description: ^64Cu-GRIP B was also tested to determine whether it can detect granzyme B secreted from activated immune cells attempting to combat bacterial infections. A cohort of mice bearing bilateral deltoid implants of live E. coli or heat killed E. coli was established to test the kinetics of tracer uptake (FIG. 10).
Next, the granzyme B responses to live E. coli versus treatment with a bolus of the endotoxin LPS were compared. Three to four hours after implantation, mice received ^64Cu-GRIP B and were imaged serially (FIG. 12).

[4] = biodistribution at 2 hours post injection

Structure (SMILES): CC[C@H](C)[C@H](NC(=O)[C@H](CCCCN)NC(=O)CNC(=O)[C@H](CC(C)C)NC(=O)[C@H](Cc1ccccc1)NC(=O)[C@H](CCCCN)NC(=O)[C@H](CO)NC(=O)[C@H](Cc1ccccc1)NC(=O)[C@H](Cc1c[nH]c2ccccc12)NC(=O)[C@H](CCC(N)=O)NC(=O)[C@@H](NC(=O)[C@H](Cc1ccccc1)NC(=O)CCCCCNC(=O)CN1CCN(CC(=O)O)CCN(CC(=O)O)CCN(CC(=O)O)CC1)C(C)C)C(=O)N[C@@H](CCC(=O)O)C(=O)N1CCC[C@H]1C(=O)N[C@@H](CC(=O)O)C(=O)N[C@H](C(=O)N[C@@H](CO)C(=O)N[C@@H](CCC(N)=O)C(=O)N[C@H](C(=O)N[C@@H](CCC(N)=O)C(=O)N[C@@H](CC(=O)O)C(=O)N1CCC[C@H]1C(=O)N[C@@H](CC(N)=O)C(=O)N[C@@H](CC(=O)O)C(=O)N[C@@H](CCC(N)=O)C(=O)N[C@@H](Cc1ccc(O)cc1)C(=O)N[C@@H](CCC(=O)O)C(=O)N1CCC[C@H]1C(=O)N[C@@H](Cc1ccccc1)C(=O)O)C(C)C)C(C)C [^64Cu-GRIP B, metal not drawn] ({DOTA-Ahx}-FVQWFSKFLGKIEPDVSQVQDPNDQYEPF-OH)
- uptake in infected muscle, GZMB knockout compared to wild type (E. coli [1]; PET/CT and biodistribution): lower
- difference in tracer uptake between normal muscle, live and heat killed E. Coli treated muscle (E. coli [1]; knockout strain): negligible difference
- normal tissue biodistribution (biodistribution out to 24 hours post injection): highest level of tissue-associated activity in the kidney and liver
- dominant mode of clearance (intravenous, C57B16/J mice, dynamic PET): renal
- radiotracer uptake compared to normal muscle (L. monoctyogenes): significant increase
- uptake in live bacterial abscesses compared to heat killed controls (L. monoctyogenes): did not impact
- uptake in treated muscles versus normal muscle (K. pneumoniae): higher
- uptake in live bacterial infection versus contralateral heat killed bacteria (K. pneumoniae; deltoid muscles): higher
- granzyme B response in live bacterial abscess compared to that of E. coli (S. aureus; S. aureus): more modest granzyme B response
- uptake in live bacterial abscess versus heat killed abscess (S. aureus; S. aureus): significantly higher
- time course of radiotracer uptake (S. aureus; S. aureus deltoid implant): rising rapidly from 0-6 hours post injection and plateauing from 6-24 hours
- correlation of tumoral uptake or tumor to blood ratio with percent changes in tumor volume (CT26 tumors; GZMB knockout mouse background): neither tumoral uptake nor tumor to blood ratio of ^64Cu-GRIP B correlated
- post treatment changes in radiotracer uptake in tumors and spleen, CPI compared to vehicle (CT26 tumors; germline homozygous GZMB knockout mice, CT26 tumors): No significant post treatment changes
- tissue uptake per volume at 10 min [2]: ~5 %ID/mL
- time course of uptake in treated tumors (subcutaneous CT26 tumors; CPI (anti-PD1 plus anti-CTLA4) treated, static PET/CT ROI analysis): steadily rose from 0.5 to 2-4 hours post injection
- persistence of radioactivity in tumors (subcutaneous CT26 tumors; CPI treated, PET): persisted in tumors out to 24 hours post injection
- digital autoradiography signal, treated versus control tumor (subcutaneous CT26 tumors; CT26 tumor slices, co-aligned with GZMB and CD3): significantly higher
- tumoral uptake, CPI versus vehicle treated arm (subcutaneous CT26 tumors; PET, 2 hours post injection): significantly higher
- induction of radiotracer uptake in tumors, treated compared to control mice (subcutaneous CT26 tumors; [4]): ~50%
- tracer uptake within the spleen, treated versus vehicle (subcutaneous CT26 tumors; [4]): significant increase
- radiotracer uptake in vehicle tumors by comparison with CPI treated (subcutaneous CT26 tumors; vehicle treated mice, dynamic PET): significantly lower and did not change over time
- correlation of tumor to blood ratios with percent change in tumor volume (subcutaneous CT26 tumors; wild type mice, day 11): significantly correlated
- correlation of tumoral uptake with percent change in tumor volume (subcutaneous CT26 tumors; wild type mice, day 11 compared to day 0): significantly correlated
- tumoral uptake after CPI compared to controls (MC38): significant increase
- relative radiotracer uptake per organ, viral infection (virus): higher radiotracer uptake in numerous tissues
- uptake in treated muscles versus normal muscle (P. aeruginosa): higher
- uptake in live bacterial infection versus contralateral heat killed bacteria (P. aeruginosa; deltoid muscles): higher
- uptake in live abscess compared to site of heat killed bacterial implantation (E. coli [3]; E. coli, bilateral deltoid implants): significantly higher
- time course of tracer uptake in the myositis lesion (E. coli [3]; live E. coli deltoid implant): increased out to 5 hours and persisted to at least 24 hours post injection
- radiotracer uptake, live E. coli abscess versus bolus of LPS (E. coli [3]; tracer three to four hours after implantation, serial imaging): differences in radiotracer uptake were detected from 6-24 hours post injection
